Source: PMC8364938 (MicrobiologyOpen, 2021)

System: 9His-cgLAAO1
Assay: coupled peroxidase/o-dianisidine assay, Hanes-Woolf
Type: biochemical, Colletotrichum gloeosporioides
Details: 50 mM TEA/HCl pH 7.0, 30 °C

For `NC(=O)CC[C@H](N)C(=O)O` [L-glutamine], which Km is on record?
The Km was 760 ± 100 µM.

`COC(=O)[C@@H](N)CC(C)C` [L-leucine methyl ester] was tested. Which Km did it give?
The Km was 12900 ± 300 µM.

Which Km does the source give for `CC(C)C[C@H](N)C(=O)O` [L-leucine] here?
The Km was 1200 ± 200 µM.

Which Km does the source give for `CSCC[C@H](N)C(=O)O` [L-methionine] here?
The Km was 1060 ± 500 µM.

`N[C@@H](Cc1ccccc1)C(=O)O` [L-phenylalanine] was tested. Which Km did it give?
Its Km is 320 ± 30 µM.
